Measurements published in ChEMBL document CHEMBL1157033, “Developing a complete pharmacology for AMPA receptors: a perspective on subtype-selective ligands” (Bioorg Med Chem, 2010).

Columns and labels:
Glutamate receptor 3 [1] = target: T1, Glutamate receptor 3 (Homo sapiens, UniProt P42263); assay: Agonist activity at recombinant GluA3 receptor expressed in Xenopus oocytes; type: functional, cell-based, Oocyte
Glutamate receptor 3 [2] = target: T1, Glutamate receptor 3; assay: Agonist activity at recombinant GluA3 receptor flip isoform expressed in Xenopus oocytes; type: functional, cell-based, Oocyte
Glutamate receptor 1 [3] = target: T2, Glutamate receptor 1 (Homo sapiens, UniProt P42261); assay: Agonist activity at recombinant GluA1 receptor expressed in Xenopus oocytes; type: functional, cell-based, Oocyte
T2 sequence (P42261 whole entry, canonical isoform): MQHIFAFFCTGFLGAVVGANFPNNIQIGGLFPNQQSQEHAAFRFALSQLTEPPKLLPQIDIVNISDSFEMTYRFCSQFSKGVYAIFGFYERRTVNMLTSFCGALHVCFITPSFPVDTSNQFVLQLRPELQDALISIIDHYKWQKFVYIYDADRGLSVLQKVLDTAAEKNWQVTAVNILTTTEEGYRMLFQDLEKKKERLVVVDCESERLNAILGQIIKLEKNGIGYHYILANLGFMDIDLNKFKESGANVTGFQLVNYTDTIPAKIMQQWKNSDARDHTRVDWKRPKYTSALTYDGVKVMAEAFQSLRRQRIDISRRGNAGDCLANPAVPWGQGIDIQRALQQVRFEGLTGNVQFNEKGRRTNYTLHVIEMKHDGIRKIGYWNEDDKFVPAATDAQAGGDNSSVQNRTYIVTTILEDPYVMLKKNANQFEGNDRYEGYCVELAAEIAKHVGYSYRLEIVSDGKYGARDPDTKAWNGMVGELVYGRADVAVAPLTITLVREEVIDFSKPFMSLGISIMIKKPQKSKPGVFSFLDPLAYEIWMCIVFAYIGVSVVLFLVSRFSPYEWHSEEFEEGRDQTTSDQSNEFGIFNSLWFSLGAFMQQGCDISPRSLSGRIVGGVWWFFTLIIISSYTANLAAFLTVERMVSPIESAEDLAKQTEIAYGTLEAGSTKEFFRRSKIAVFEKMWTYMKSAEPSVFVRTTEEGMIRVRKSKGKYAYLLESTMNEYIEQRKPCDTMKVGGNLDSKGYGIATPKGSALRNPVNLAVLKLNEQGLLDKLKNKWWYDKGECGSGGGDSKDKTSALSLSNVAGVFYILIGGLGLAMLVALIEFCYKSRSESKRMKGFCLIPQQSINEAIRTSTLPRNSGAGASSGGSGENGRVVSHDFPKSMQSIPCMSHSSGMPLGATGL

Glutamate receptor 1 [4] = target: T2, Glutamate receptor 1; assay: Agonist activity at recombinant GluA1 receptor flip isoform expressed in Xenopus oocytes; type: functional, cell-based, Oocyte
[5] = Agonist activity at recombinant GluA4 receptor flip isoform expressed in Xenopus oocytes; type: functional, cell-based; settings: Oocyte
Glutamate receptor 3 [6] = target: T1, Glutamate receptor 3; assay: Agonist activity at recombinant GluA3 receptor flop isoform expressed in Xenopus oocytes; type: functional, cell-based, Oocyte
Glutamate receptor 1 [7] = target: T2, Glutamate receptor 1
[8] = Agonist activity at recombinant GluA4 receptor flop isoform expressed in Xenopus oocytes; type: functional, cell-based; settings: Oocyte
[9] = Antagonist activity at recombinant GluA2A4 receptor flip isoform expressed in Xenopus oocytes; type: functional; settings: Xenopus laevis, Oocyte
Oocyte [10] = assay: Activity at recombinant GluA2A4 receptor flop isoform expressed in Xenopus oocytes assessed as potentiation of glutamate-induced current at 5 mM relative to control; type: cell-based
Oocyte [11] = assay: Activity at recombinant GluA2A4 receptor flip isoform expressed in Xenopus oocytes assessed as potentiation of glutamate-induced current at 5 mM relative to control; type: cell-based
Glutamate receptor 1 [12] = target: T2, Glutamate receptor 1; assay: Activity at recombinant GluA1 receptor flop isoform expressed in Xenopus oocytes assessed as potentiation of 10 uM AMPA-induced current at 100 uM relative to control; type: cell-based; settings: Oocyte
[13] = target: T3, Glutamate receptor AMPA 2/3 (Homo sapiens) (UniProt P42263+P42262); assay: Activity at recombinant GluA2 receptor flip/GluA3 receptor flop isoform expressed in Xenopus oocytes assessed as potentiation of 10 uM AMPA-induced current at 100 uM relative to control; type: cell-based; settings: Oocyte
[14] = target: T4, Glutamate receptor AMPA 2/4 (Rattus norvegicus) (UniProt P19491+P19493); assay: Activity at rat recombinant GluA2A4 receptor flip isoform expressed in HEK293 cells assessed as potentiation of 3000 uM glutamate-induced current at 100 uM relative to control; type: cell-based
Glutamate receptor 3 [15] = target: T1, Glutamate receptor 3; assay: Activity at recombinant GluA3 receptor flip isoform expressed in Xenopus oocytes assessed as potentiation of 10 uM AMPA-induced current at 100 uM relative to control; type: cell-based; settings: Oocyte
[16] = target: Glutamate receptor 1 (Rattus norvegicus) (UniProt P19490); assay: Activity at rat recombinant GluA1 receptor flip isoform expressed in HEK293 cells assessed as potentiation of 3000 uM glutamate-induced current at 100 uM relative to control; type: cell-based
Sequence of Glutamate receptor 1 (Rattus norvegicus) (P19490 whole entry, canonical isoform): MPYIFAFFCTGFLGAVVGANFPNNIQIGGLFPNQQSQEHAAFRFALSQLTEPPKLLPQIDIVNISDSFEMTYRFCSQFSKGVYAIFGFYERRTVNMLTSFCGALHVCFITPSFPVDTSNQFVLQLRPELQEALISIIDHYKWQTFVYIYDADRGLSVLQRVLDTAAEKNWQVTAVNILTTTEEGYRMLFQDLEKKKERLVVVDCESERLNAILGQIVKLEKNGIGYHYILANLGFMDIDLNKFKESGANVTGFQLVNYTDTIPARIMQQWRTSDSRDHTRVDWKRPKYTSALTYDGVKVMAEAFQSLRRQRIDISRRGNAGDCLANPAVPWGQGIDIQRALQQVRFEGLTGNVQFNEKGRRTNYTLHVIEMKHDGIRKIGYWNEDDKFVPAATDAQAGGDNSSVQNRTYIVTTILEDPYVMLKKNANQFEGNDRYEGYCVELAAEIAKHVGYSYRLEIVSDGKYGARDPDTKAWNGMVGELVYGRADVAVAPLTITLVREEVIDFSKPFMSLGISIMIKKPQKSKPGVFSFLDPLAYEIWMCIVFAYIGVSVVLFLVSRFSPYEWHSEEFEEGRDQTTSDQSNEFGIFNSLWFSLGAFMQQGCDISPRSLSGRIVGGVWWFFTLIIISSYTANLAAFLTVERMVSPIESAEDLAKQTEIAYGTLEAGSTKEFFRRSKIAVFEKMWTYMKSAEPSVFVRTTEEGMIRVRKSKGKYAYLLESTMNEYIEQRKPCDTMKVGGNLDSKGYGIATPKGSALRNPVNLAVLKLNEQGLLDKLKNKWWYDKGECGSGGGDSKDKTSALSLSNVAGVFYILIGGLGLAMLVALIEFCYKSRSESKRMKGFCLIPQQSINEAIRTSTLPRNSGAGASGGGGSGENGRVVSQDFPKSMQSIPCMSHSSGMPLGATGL

[17] = target: Glutamate receptor 3 (Rattus norvegicus) (UniProt P19492); assay: Activity at rat recombinant GluA3 receptor flop isoform expressed in HEK293 cells assessed as potentiation of 3000 uM glutamate-induced current at 100 uM relative to control; type: cell-based
Sequence of Glutamate receptor 3 (Rattus norvegicus) (P19492 whole entry, canonical isoform): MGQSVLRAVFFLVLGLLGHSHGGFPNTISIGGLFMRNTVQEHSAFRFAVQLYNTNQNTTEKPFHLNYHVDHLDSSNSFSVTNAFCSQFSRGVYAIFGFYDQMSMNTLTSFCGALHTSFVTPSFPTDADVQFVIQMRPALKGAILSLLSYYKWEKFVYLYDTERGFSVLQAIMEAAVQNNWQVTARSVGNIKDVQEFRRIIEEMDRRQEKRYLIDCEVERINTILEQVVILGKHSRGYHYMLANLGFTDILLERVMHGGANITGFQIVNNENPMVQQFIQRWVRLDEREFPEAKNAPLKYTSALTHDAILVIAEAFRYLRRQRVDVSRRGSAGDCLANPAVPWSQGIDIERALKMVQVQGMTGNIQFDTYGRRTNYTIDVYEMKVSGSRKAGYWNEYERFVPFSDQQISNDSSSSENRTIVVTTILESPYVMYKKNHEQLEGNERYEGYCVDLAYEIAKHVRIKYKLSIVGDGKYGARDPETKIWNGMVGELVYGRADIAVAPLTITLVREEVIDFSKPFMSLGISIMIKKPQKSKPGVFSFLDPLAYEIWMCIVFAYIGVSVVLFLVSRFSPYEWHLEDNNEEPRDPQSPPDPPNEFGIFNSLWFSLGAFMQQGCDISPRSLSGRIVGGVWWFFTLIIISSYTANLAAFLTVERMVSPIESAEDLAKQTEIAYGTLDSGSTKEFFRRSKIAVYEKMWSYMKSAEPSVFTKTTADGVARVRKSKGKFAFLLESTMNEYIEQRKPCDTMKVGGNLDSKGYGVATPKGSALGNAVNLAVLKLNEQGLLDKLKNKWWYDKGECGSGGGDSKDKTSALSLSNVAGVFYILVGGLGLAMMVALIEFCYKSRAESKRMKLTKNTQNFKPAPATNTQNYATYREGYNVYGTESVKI

[18] = target: T3, Glutamate receptor AMPA 2/3 (Homo sapiens); assay: Activity at recombinant GluA2A3 receptor flop isoform expressed in Xenopus oocytes assessed as potentiation of 10 uM AMPA-induced current at 100 uM relative to control; type: cell-based; settings: Oocyte
[19] = target: Glutamate receptor 4 (Rattus norvegicus) (UniProt P19493); assay: Activity at rat recombinant GluA4 receptor flip isoform expressed in HEK293 cells assessed as potentiation of 3000 uM glutamate-induced current at 100 uM relative to control; type: cell-based
Sequence of Glutamate receptor 4 (Rattus norvegicus) (P19493 whole entry, canonical isoform): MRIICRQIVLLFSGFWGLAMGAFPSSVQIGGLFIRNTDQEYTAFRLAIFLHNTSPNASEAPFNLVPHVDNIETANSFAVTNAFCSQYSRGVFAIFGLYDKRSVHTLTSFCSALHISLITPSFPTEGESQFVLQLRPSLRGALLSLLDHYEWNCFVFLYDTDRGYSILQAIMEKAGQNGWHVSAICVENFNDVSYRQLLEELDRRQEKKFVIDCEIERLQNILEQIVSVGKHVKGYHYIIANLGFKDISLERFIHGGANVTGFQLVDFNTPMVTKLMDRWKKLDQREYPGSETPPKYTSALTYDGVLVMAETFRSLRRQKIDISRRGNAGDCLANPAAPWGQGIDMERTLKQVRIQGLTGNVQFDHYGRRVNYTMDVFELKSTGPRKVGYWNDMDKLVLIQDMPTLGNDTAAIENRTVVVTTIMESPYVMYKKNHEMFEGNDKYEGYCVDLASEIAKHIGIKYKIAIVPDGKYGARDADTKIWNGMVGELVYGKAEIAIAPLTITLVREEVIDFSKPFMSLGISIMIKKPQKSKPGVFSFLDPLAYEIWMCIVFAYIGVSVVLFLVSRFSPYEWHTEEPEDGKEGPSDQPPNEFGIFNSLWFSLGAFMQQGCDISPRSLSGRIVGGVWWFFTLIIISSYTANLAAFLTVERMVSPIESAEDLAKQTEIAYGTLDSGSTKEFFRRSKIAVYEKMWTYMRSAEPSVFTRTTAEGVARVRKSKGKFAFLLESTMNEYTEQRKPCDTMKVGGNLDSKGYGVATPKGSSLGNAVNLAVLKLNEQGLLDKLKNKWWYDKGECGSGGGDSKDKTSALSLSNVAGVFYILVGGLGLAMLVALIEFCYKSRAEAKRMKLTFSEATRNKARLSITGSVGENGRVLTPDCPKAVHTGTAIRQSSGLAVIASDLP

[20] = target: T3, Glutamate receptor AMPA 2/3 (Homo sapiens); assay: Activity at recombinant GluA2 receptor flop/GluA3 receptor flip isoform expressed in Xenopus oocytes assessed as potentiation of 10 uM AMPA-induced current at 100 uM relative to control; type: cell-based; settings: Oocyte
[21] = target: T5, Glutamate receptor AMPA 1/2 (Homo sapiens) (UniProt P42262+P42261); assay: Activity at recombinant GluA1A2 receptor flop isoform expressed in Xenopus oocytes assessed as potentiation of 10 uM AMPA-induced current at 100 uM relative to control; type: cell-based; settings: Oocyte
Glutamate receptor 1 [22] = target: T2, Glutamate receptor 1; assay: Activity at recombinant GluA1 receptor flip isoform expressed in Xenopus oocytes assessed as potentiation of 10 uM AMPA-induced current at 100 uM relative to control; type: cell-based; settings: Oocyte
[23] = target: Glutamate receptor 1 (Rattus norvegicus) (UniProt P19490); assay: Activity at rat recombinant GluA1 receptor flop isoform expressed in HEK293 cells assessed as potentiation of 3000 uM glutamate-induced current at 100 uM relative to control; type: cell-based
[24] = target: Glutamate receptor 4 (Rattus norvegicus) (UniProt P19493); assay: Activity at rat recombinant GluA4 receptor flop isoform expressed in HEK293 cells assessed as potentiation of 3000 uM glutamate-induced current at 100 uM relative to control; type: cell-based
[25] = target: Glutamate receptor 3 (Rattus norvegicus) (UniProt P19492); assay: Activity at rat recombinant GluA3 receptor flip isoform expressed in HEK293 cells assessed as potentiation of 3000 uM glutamate-induced current at 100 uM relative to control; type: cell-based
[26] = target: T6, Glutamate receptor AMPA 1/2 (Rattus norvegicus) (UniProt P19491+P19490); assay: Activity at rat recombinant GluA1A2 receptor flip isoform expressed in HEK293 cells assessed as potentiation of 3000 uM glutamate-induced current at 100 uM relative to control; type: cell-based
[27] = target: T6, Glutamate receptor AMPA 1/2 (Rattus norvegicus); assay: Activity at rat recombinant GluA1A2 receptor flop isoform expressed in HEK293 cells assessed as potentiation of 3000 uM glutamate-induced current at 100 uM relative to control; type: cell-based
[28] = target: T5, Glutamate receptor AMPA 1/2 (Homo sapiens); assay: Activity at recombinant GluA1 receptor flip/GluA2 receptor flop isoform expressed in Xenopus oocytes assessed as potentiation of 10 uM AMPA-induced current at 100 uM relative to control; type: cell-based; settings: Oocyte
[29] = target: T4, Glutamate receptor AMPA 2/4 (Rattus norvegicus); assay: Activity at rat recombinant GluA2A4 receptor flop isoform expressed in HEK293 cells assessed as potentiation of 3000 uM glutamate-induced current at 100 uM relative to control; type: cell-based
[30] = target: T7, Glutamate receptor ionotropic, AMPA 2/3 (Rattus norvegicus) (UniProt P19491+P19492); assay: Activity at rat recombinant GluA2A3 receptor flop isoform expressed in HEK293 cells assessed as potentiation of 3000 uM glutamate-induced current at 100 uM relative to control; type: cell-based
[31] = target: T5, Glutamate receptor AMPA 1/2 (Homo sapiens); assay: Activity at recombinant GluA1 receptor flop/GluA2 receptor flip isoform expressed in Xenopus oocytes assessed as potentiation of 10 uM AMPA-induced current at 100 uM relative to control; type: cell-based; settings: Oocyte
[32] = target: T7, Glutamate receptor ionotropic, AMPA 2/3 (Rattus norvegicus); assay: Activity at rat recombinant GluA2A3 receptor flip isoform expressed in HEK293 cells assessed as potentiation of 3000 uM glutamate-induced current at 100 uM relative to control; type: cell-based
Glutamate receptor 3 [33] = target: T1, Glutamate receptor 3; assay: Activity at recombinant GluA3 receptor flop isoform expressed in Xenopus oocytes assessed as potentiation of 10 uM AMPA-induced current at 100 uM relative to control; type: cell-based; settings: Oocyte
Glutamate receptor 3 [34] = target: T8, Glutamate receptor 3 (Rattus norvegicus, UniProt P19492); assay: Agonist activity at rat recombinant GluA3 receptor flop isoform expressed in Xenopus oocytes; type: functional, cell-based, Oocyte
T8 sequence (P19492 whole entry, canonical isoform): as the sequence (P19492 whole entry, canonical isoform) above

Glutamate receptor 1 [35] = target: T9, Glutamate receptor 1 (Rattus norvegicus, UniProt P19490); assay: Agonist activity at rat recombinant GluA1 receptor flop isoform expressed in Xenopus oocytes; type: functional, cell-based, Oocyte
T9 sequence (P19490 whole entry, canonical isoform): as the sequence (P19490 whole entry, canonical isoform) above

Glutamate receptor 3 [36] = target: T8, Glutamate receptor 3; assay: Agonist activity at rat recombinant GluA3 receptor expressed in Xenopus oocytes; type: functional, cell-based, Oocyte
Glutamate receptor 1 [37] = target: T9, Glutamate receptor 1; assay: Agonist activity at rat recombinant GluA1 receptor expressed in Xenopus oocytes; type: functional, cell-based, Oocyte

T1 sequence (P42263 whole entry, canonical isoform): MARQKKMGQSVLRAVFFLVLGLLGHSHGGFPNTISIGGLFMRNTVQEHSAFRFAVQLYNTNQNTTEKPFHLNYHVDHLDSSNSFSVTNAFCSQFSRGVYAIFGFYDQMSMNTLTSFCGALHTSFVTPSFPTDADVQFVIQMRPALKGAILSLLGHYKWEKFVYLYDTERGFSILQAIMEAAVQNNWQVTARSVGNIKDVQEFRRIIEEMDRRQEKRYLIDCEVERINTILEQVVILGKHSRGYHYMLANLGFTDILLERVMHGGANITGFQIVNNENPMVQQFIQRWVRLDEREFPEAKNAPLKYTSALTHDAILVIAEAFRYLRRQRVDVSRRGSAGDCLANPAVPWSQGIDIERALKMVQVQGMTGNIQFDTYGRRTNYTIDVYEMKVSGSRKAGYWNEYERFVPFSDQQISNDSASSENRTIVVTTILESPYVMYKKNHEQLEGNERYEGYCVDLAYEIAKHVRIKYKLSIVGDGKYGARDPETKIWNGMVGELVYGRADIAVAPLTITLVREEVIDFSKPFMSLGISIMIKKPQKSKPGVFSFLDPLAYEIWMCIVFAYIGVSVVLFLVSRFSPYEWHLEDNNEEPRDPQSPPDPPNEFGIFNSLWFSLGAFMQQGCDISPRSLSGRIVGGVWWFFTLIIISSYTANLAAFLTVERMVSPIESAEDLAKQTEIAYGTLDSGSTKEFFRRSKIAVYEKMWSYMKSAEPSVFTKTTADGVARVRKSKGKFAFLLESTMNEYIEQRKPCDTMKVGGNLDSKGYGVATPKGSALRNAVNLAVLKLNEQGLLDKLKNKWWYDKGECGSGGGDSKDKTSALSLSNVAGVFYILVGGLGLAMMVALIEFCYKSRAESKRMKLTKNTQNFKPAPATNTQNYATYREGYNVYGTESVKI

In the case of `N[C@@H](Cn1cc(F)c(=O)[nH]c1=O)C(=O)O`, the EC50 (Glutamate receptor 3 [1]) is reported as 20900 nM, the EC50 (Glutamate receptor 3 [2]) is reported as 20900 nM and the EC50 (Glutamate receptor 1 [3]) is reported as 380 nM. It also gave an EC50 (Glutamate receptor 1 [4]) of 382 nM and an EC50 [5] of 11900 nM.

In the case of `Cc1onc(C(=O)O)c1C[C@H](N)C(=O)O`, the EC50 (Glutamate receptor 3 [6]) is reported as 1600 nM, the EC50 (Glutamate receptor 1 [7]) is reported as 270 nM and the EC50 [8] is reported as 1700 nM.

With `N#Cc1cc2c(cc1[N+](=O)[O-])=NC(=O)C(=O)N=2` the Kb [9] was 501 nM.

With `COc1ccc(C(=O)N2CCCC2=O)cc1` the fold change (FC) (Oocyte [10]) was 77 and the fold change (FC) (Oocyte [11]) was 7.5.

With `NC(=O)COc1c(F)cc(SCCNS(=O)(=O)c2ccccc2)cc1F` the fold change (FC) (Glutamate receptor 1 [12]) was 2.9, the fold change (FC) [13] was 8.85 and the fold change (FC) [14] was 10. It also gave a fold change (FC) (Glutamate receptor 3 [15]) of 2.51, a fold change (FC) [16] of 1.9 and a fold change (FC) [17] of 11.1. It also gave a fold change (FC) [18] of 21.1, a fold change (FC) [19] of 11 and a fold change (FC) [20] of 4.78. For the same molecule, the fold change (FC) [21] was 7.44, the fold change (FC) (Glutamate receptor 1 [22]) was 1.9 and the fold change (FC) [23] was 2.9. The fold change (FC) [24] was 75, the fold change (FC) [25] was 2.51 and the fold change (FC) [26] was 20. The fold change (FC) [27] was 124, the fold change (FC) [28] was 20.1 and the fold change (FC) [29] was 74. For the same molecule, the fold change (FC) [30] was 138, the fold change (FC) [31] was 9.49 and the fold change (FC) [32] was 28. The fold change (FC) (Glutamate receptor 3 [33]) was 11.1.

With `NC(Cc1ccc(=O)[nH][n+]1[O-])C(=O)O` (racemic) the EC50 (Glutamate receptor 3 [1]) was 41600 nM, the EC50 (Glutamate receptor 3 [2]) was 41600 nM and the EC50 (Glutamate receptor 1 [3]) was 260 nM. The EC50 (Glutamate receptor 1 [4]) was 258 nM.

`Cc1onc(C(=O)O)c1CC(N)C(=O)O` (racemic) gave an EC50 (Glutamate receptor 3 [34]) of 100 nM, an EC50 (Glutamate receptor 1 [35]) of 1100 nM and an EC50 (Glutamate receptor 3 [36]) of 100 nM. The EC50 (Glutamate receptor 1 [37]) was 1100 nM.
